In patent US20160113900A1, “INHIBITORS OF MITOCHONDRIAL STAT3 AND USES THEREOF IN MODULATION OF MAST CELL EXOCYTOSIS” (Yissum Research Development Company of the Hebrew …, priority 2014, published 2016):

Legend:
[1] = tested on: c-myc; experiment: Western blot of c-myc (STAT3 target gene) in RBL cells; format: cell-based, rat; conditions: 3 h
Procedure: (§1) RBL cells and mitochondrial pellets were lysed by the addition of lysis buffer (50 mM Tris-HCl pH 7.4, 1% Nonidet P-40, 0.25% Na-deoxycholate, 150 mM NaCl, 1 mM EDTA, 1 mM PMSF) supplemented with 15 μl protease inhibitor (Sigma-Aldrich). Cells and mitochondria were vortexed and incubated on ice for 15 min. The lysates were then centrifuged at 14,000 g for 15 min and pellets were discarded. The protein concentration of each sample was determined using Bradford Reagent (Sigma-Aldrich). Proteins were resolved by 10-15% SDS-PAGE under reducing conditions and transferred to polyvinylidene difluoride membranes (Millipore Billerica, Ma). The membranes were incubated in 5% fat-free milk and TBST (10 mM Tris-HCl, pH 7.4, 150 mM NaCl, 0.1% Tween 20) for 1 h and then in 5% BSA and TBST containing various dilutions of primary Abs for 18 h at 4° C. The membranes were washed three times with TBST for 5 mM before and after each incubation with secondary Ab. The proteins were detected with the appropriate secondary Ab (1 h; room temperature) coupled to HRP-conjugated goat anti-rabbit or anti-mouse Ab and visualized by chemiluminescence according to the manufacturer's instructions (Pierce).
The levels of cleaved caspase3 were measured as an indicator of apoptosis, which could occur as a result of inhibiting STAT3's target genes. […] Since higher concentrations reduced the levels of c-myc and enhanced the levels of cleaved caspase3, the inventors concluded that 6 μM Mitocur-1/3 or lower would be suitable for the present invention. As these molecules are intended to be used in a time frame greater than 3 h, RBL cells were incubated with the same concentrations of Mitocur-1/3 for 24 h and the levels of cleaved caspase3 were determined by Western blot analysis.

[2] = tested on: plasma histamine; experiment: In vivo histamine release assay, passive systemic IgE-mediated anaphylaxis model; conditions: mice, Mitocur-3 40 mg/kg i.p., 3.5 h before DNP-BSA challenge
Procedure: C3H 6-7 week male and female WT mice were purchased from Jackson Lab (Cambridge, Mass., USA), mice were fed a regular diet and with drinking water ad libitum. Experiments were approved by The Hebrew University Ethical Committee for Animal Experimentation.
WT C3H mice were sensitized with 3 μg murine IgE anti-DNP mAb SPE-7 by means of intravenous injection in the tail vein. Twenty-four hours later, mice were treated with 40 mg/kg of static dissolved in corn oil or corn oil alone for 2.5 hours, then mice were challenged with i.v. injection of DNP-BSA (250 μg per mouse). 100 μl of blood was collected immediately and added to an equal volume of pre-cold Alsever's Solution. Blood was centrifuged 2000 g for […] and plasma supernatant was collected. Plasma histamine levels were determined by using competitive ELISA (IBL International Gmbh, Hamburg, Germany).
STAT3's role in vivo was investigated by evaluating the response to allergic stimulation in Stattic-treated mice. The passive systemic IgE-mediated anaphylaxis model was used. Mice were injected (i.v.) with IgE anti-DNP. Twenty four hours later they were injected (i.p.) with Stattic (80 mg/kg) or corn oil which was used as control. Three and a half hours later the mice were challenged with DNP-BSA for 1.5 minutes. Plasma was collected, and histamine levels were measured by competitive ELISA. Histamine secretion in Stattic-treated mice was 43% less than that in control mice (FIG. 17, p<0.05).
Mitocur-1/3 effectiveness in vivo was investigated by evaluating the response to allergic stimulation in Mitocur-1/3-treated mice. The passive systemic IgE-mediated anaphylaxis model was used. Mice were injected (i.v.) with IgE anti-DNP. Twenty four hours later they were injected (i.p.) with Mitocur-1 (80 mg/kg) and Mitocur-3 (40 mg/kg). Corn oil was used as control. Three and a half hours later the mice were challenged with DNP-BSA for 1.5 minutes. Plasma was collected, and histamine levels were measured by competitive ELISA. Histamine secretion in Mitocur-1-treated mice was 35% less than that in control mice (FIG. 22A, p<0.05).

[3] = tested on: BMMC; experiment: β-Hexosaminidase release assay (degranulation) in BMMC; format: cell-based, mouse; conditions: activated BMMC, 6 μM
Procedure: (§2) RBL-2H3 cells were maintained in RPMI 1640 medium as previously described1. Bone marrow was isolated from 5-6 week-old mice, and BMMC were cultured in RPMI medium supplemented with 20 ng/ml interleukin-3 (IL-3) and 20 ng/ml SCF as previously described2, 3. Cells were generally grown for a minimum of 4 weeks and used when >90% of the population expressed FcεRI. BMMC and RBL cells were sensitized first with anti-DNP IgE monoclonal antibody (SPE-7; Sigma-Aldrich Corp.) and then challenged with DNP-BSA (Sigma-Aldrich Corp.). IgE antibody was centrifuged (18,000 g, 5 min) before use to remove aggregates. […] For glycolysis elimination cells were maintained in glucose-free RPMI supplemented with 10% dialyzed fetal calf serum and 5 mM galactose.
(§3) 1×104 RBL or 3×104 BMMC were immunologically activated as described above. After IgE incubation, the cells were washed three times with 5 mL of degranulation buffer (NaCl 130 mM, KCl 5 mM, Glucose 5.6 mM, MgCl2 1 mM, CaCl2 1.2 mM, Hepes pH 7.4 10 mM, BSA 0.1%) and resuspended in 200 μL of the same buffer with DNP-albumin for 30 min. The release of β-hexosaminidase was determined in triplicates in a 96-well plate. Aliquots (20 μL) of supernatants and cell lysates were incubated for 30 minutes with 100 μL of substrate solution (1.3 mg/mL p-nitrophenyl-b-D-2-acetamido-2-deoxyglucopyranozide in 0.1 M citrate [pH 4.51]). The reaction was stopped by the addition of 200 μL of 0.2 M glycine (pH 10.7). The plate OD was read in an enzyme-linked immunosorbent assay (ELISA) reader at a wavelength of 405 nm Percent release values for each experimental condition were calculated3.

[4] = tested on: CBMC; experiment: β-Hexosaminidase release assay (degranulation) in human cord blood-derived mast cells; format: cell-based; conditions: 12 μM, 3 h incubation
[5] = tested on: RBL cells; experiment: β-Hexosaminidase release assay (degranulation) in RBL cells; format: cell-based, rat
Procedure: as §2, §3

[6] = tested on: RBL cells; experiment: Oxygen consumption (Seahorse XF analyzer) in RBL cells; format: cell-based, rat; conditions: RBL cells, 3 h
Procedure: as §2
Oxygen consumption rate (OCR) was measured using an XF24 extracellular flux analyzer (Seahorse Biosciences, North Billeric, Mass., USA).

[7] = tested on: BMMC; experiment: Measurements of secreted mediators (ELISA) in activated BMMC; format: cell-based, mouse
Procedure: 1×106 BMMC were immunologically activated as described above. After IgE incubation, the cells were washed three times in PBS and incubated with DNP-albumin (Sigma-Aldrich) for 30 mM in complete growth medium. Supernatant was collected and Granzyme B and TNFα content were measured using ELISA Kits (eBioscience).

[8] = tested on: RBL cells; experiment: TNF-α secretion of activated RBL cells; format: cell-based, rat; conditions: activated RBL cells (FIG. 19G)
[9] = tested on: RBL cells; experiment: ATP determination (ATPLite luminescence) in RBL cells; format: cell-based, rat; conditions: RBL cells
Procedure: as §2
ATP levels were measured using the ATPLite luminescence-based assay according to the manufacturer's instructions (Perkin Elmer, Waltham, Mass., USA).

[10] = tested on: caspase3; experiment: Western blot of caspase3 / cleaved caspase3 (apoptosis) in RBL cells; format: cell-based, rat; conditions: RBL cells
Procedure: as §1

[11] = tested on: caspase3; experiment: Western blot of cleaved caspase3 in BMMC; format: cell-based, mouse; conditions: 6 μM (FIG. 21D)
[12] = cited from earlier work
[13] = immunologically activated BMMC, 6 μM (FIG. 21C)

O=C(/C=C/c1ccc(OCCC[P+](c2ccccc2)(c2ccccc2)c2ccccc2)cc1)CC(=O)/C=C/c1ccc(OCCC[P+](c2ccccc2)(c2ccccc2)c2ccccc2)cc1 [Mitocur-3, 1,7-{4-[3-(triphenylphosphonium)propoxy]phenyl}hepta-1,6-diene-3,5-dione dichloride]
c-myc levels compared to control ([1]; 6 μM): no change
c-myc levels ([1]; concentrations higher than 6 μM): reduced
decrease in histamine secretion [2]: 32.4%
degranulation levels ([3]; 3 h incubation): reduced
degranulation levels ([3]; 24 h incubation): reduced
degranulation levels [4]: successfully reduced
Emax at 6 µM ([5]; Rattus norvegicus, RBL cells, 6 μM, 3 h incubation, read-out: maximum effect, reduction of degranulation): > 50%
melting point: 145 to 160 °C
oxygen consumption ([6]; 100 μM): reduced
oxygen consumption ([6]; 6-50 μM): No significant reduction
Granzyme-B secretion ([7]; BMMC (data not shown)): abolished
cytokine secretion: IL-6 [7, 13]: totally abolished
cytokine secretion: TNF-α [7, 13]: totally abolished
TNF-α secretion [8]: completely abolished
ATP levels ([9]; 100 μM, 3 h (data not shown)): reduced
ATP levels ([9]; 6-50 μM, 3 h): No significant reduction
cleaved caspase levels ([10]; 6 μM, 3 h): no change
cleaved caspase3 levels ([10]; 6 μM, 24 h): slight change
cleaved caspase3 levels ([10]; concentrations higher than 6 μM, 3 h): enhanced
cleaved caspase3 levels [11]: no change

COc1cc(/C=C/C(=O)CC(=O)/C=C/c2ccc(O)c(OC)c2)ccc1O [curcumin, (1E,6E)-1,7-Bis(4-hydroxy-3-methoxyphenyl)-1,6-heptadiene-3,5-dione]
pKa of the two phenolic OH groups [12]: 10-10.5
degranulation (β-hexosaminidase release) ([5]; RBL cells, curcumin 12.5, 25, 50 and 100 μM, 10 min (FIG. 19A)): significantly reduced
degranulation levels ([5]; activated RBL cells, 10 min incubation with curcumin (FIG. 8)): completely abolished
